According to patent US20130344494A1, “MYH10 AS A NEW MARKER OF PATHOLOGIES RESULTING FROM RUNX1 INACTIVATION” (priority 2011, published 2013):

Tests used:
CD41+ MK = test: Ploidy level of CD41+ MK cultured from mouse fetal liver Lin- progenitors; type: cell-based, mice; conditions: 50 μM blebbistatin, p=0.01, n=3
Protocol: Thus, the ploidy level of CD41^+ MK was analyzed directly after dissociation the fetal liver as previously described for bone marrow MK (GILLES et al, Blood, 2009). Briefly, the hematopoietic progenitors (Lineage negative, Lin-, cells) were purified from fetal liver of E13.5 by the kit MILTENYI BIOTEC and were cultivated in serum free medium with TPO and stem cell factor (SCF). Blebbistatin was added in the culture just after the purification and ploidy level of CD41^+ cells was analyzed at day 3 of culture.

H2B-GFP-expressing MKs = test: Real-time video microscopy of endomitosis in H2B-GFP-expressing MKs; type: cell-based; conditions: Blebbistatin 25 μM
Protocol: To check more precisely how myosin II inhibition affects the endomitosis process, we used real-time video microscopy to monitor endomitosis in H2B-GFP-expressing MKs treated with Blebbistatin (25 μM). Endomitotic MK treated with Blebbistatin or without Blebbistatin were filmed in 3 independent experiments.

CD41+/CD42+ MKs = test: MK ploidy level by flow cytometry after addition of Blebbistatin; type: cell-based; conditions: added at day 6, 72 h
Protocol: To investigate the role of myosin II in MK endomitosis, Blebbistatin was used to inhibit its […] during megakaryocytosis. Blebbistatin is added into MK culture at day 6. The ploidy level of CD41^+/CD42^+ MKs was analyzed by flow cytometry 72 h after addition of Blebbistatin.

CD41+ cells (MKs) = test: FRAP of actin-GFP turnover in the contractile ring of MKs; type: cell-based; conditions: Blebbistatin 12.5 μM
Protocol: CD41^+ GFP^+ and CD41^− GFP^+ cells were sorted and the actin turnover was measured in the contractile ring at the end of cytokinesis by FRAP in the dipolar mitosis or endomitosis.

Cc1ccc2c(c1)C(=O)C1(O)CCN(c3ccccc3)C1=N2 (centres unmarked) [Blebbistatin]
mean ploidy level (CD41+ MK; myh9−/− mice, without 10.40): 14.72 | mean ploidy level (CD41+ MK; wt control mice, without 10.00N): 13.40 N | furrow ingression of MKs (H2B-GFP-expressing MKs): almost completely inhibited | metaphase-to-anaphase transition (H2B-GFP-expressing MKs): apparently normal | mean ploidy (CD41+/CD42+ MKs; 25 μM Blebbistatin, control 6.47N, n=3, p=0.015): 11.27 N | mean ploidy (CD41+/CD42+ MKs; 100 μM Blebbistatin, control 6.28N, n=4, p=0.008): 12.13 N | actin-GFP fluorescence recovery in the contractile ring of MKs (CD41+ cells (MKs); control 55.7%±12.8, n=8, p=0.01): 42.9%±9.0 | t1/2 of actin-GFP fluorescence recovery (CD41+ cells (MKs); n=8): 2.94 ± 1.35 s
